PubChem BioAssay (NCI)
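These data come from cells grown in 96-well plates and exposed to compound for 48 hours at five concentrations. TGI marks complete inhibition of growth.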

Legend:
Assay in all cases: inhibition of tumour cell growth, NCI panel, 48 h
786-0 renal = test system: 786-0 renal
A498 renal = test system: A498 renal
A549 NSCLC = test system: A549 NSCLC
ACHN renal = test system: ACHN renal
CAKI-1 renal = test system: CAKI-1 renal
CCRF-CEM leukemia = test system: CCRF-CEM leukemia
COLO 205 colon = test system: COLO 205 colon
DLD-1 colon = test system: DLD-1 colon
DMS 114 small cell lung = test system: DMS 114 small cell lung
DMS 273 small cell lung = test system: DMS 273 small cell lung
HCC-2998 colon = test system: HCC-2998 colon
HCT-116 colon = test system: HCT-116 colon
HCT-15 colon = test system: HCT-15 colon
HL-60(TB) leukemia = test system: HL-60(TB) leukemia
HOP-18 NSCLC = test system: HOP-18 NSCLC
HOP-62 NSCLC = test system: HOP-62 NSCLC
IGROV1 ovarian = test system: IGROV1 ovarian
K-562 leukemia = test system: K-562 leukemia
KM12 colon = test system: KM12 colon
KM20L2 colon = test system: KM20L2 colon
LXFL 529 NSCLC = test system: LXFL 529 NSCLC
M14 melanoma = test system: M14 melanoma
M19-MEL melanoma = test system: M19-MEL melanoma
MALME-3M melanoma = test system: MALME-3M melanoma
MOLT-4 leukemia = test system: MOLT-4 leukemia
NCI-H226 lung = test system: NCI-H226 lung
NCI-H460 lung = test system: NCI-H460 lung
NCI-H522 lung = test system: NCI-H522 lung
OVCAR-3 ovarian = test system: OVCAR-3 ovarian
OVCAR-4 ovarian = test system: OVCAR-4 ovarian
OVCAR-8 ovarian = test system: OVCAR-8 ovarian
RPMI-8226 leukemia = test system: RPMI-8226 leukemia
RXF 393 renal = test system: RXF 393 renal
RXF-631 renal = test system: RXF-631 renal
SF-268 CNS = test system: SF-268 CNS
SF-539 CNS = test system: SF-539 CNS
SK-MEL-2 melanoma = test system: SK-MEL-2 melanoma
SK-MEL-28 melanoma = test system: SK-MEL-28 melanoma
SK-MEL-5 melanoma = test system: SK-MEL-5 melanoma
SK-OV-3 ovarian = test system: SK-OV-3 ovarian
SN12C renal = test system: SN12C renal
SNB-19 CNS = test system: SNB-19 CNS
SNB-75 CNS = test system: SNB-75 CNS
SNB-78 CNS = test system: SNB-78 CNS
SR leukemia = test system: SR leukemia
SW-620 colon = test system: SW-620 colon
TK-10 renal = test system: TK-10 renal
U251 CNS = test system: U251 CNS
UACC-257 melanoma = test system: UACC-257 melanoma
UACC-62 melanoma = test system: UACC-62 melanoma
UO-31 renal = test system: UO-31 renal
EKVX NSCLC = test system: EKVX NSCLC
HT29 colon = test system: HT29 colon
LOX IMVI melanoma = test system: LOX IMVI melanoma
NCI-H23 lung = test system: NCI-H23 lung
OVCAR-5 ovarian = test system: OVCAR-5 ovarian
SF-295 CNS = test system: SF-295 CNS

Measured: TGI

C#CC[C@]12CC(=O)CC[C@H]1CC1(C2)OCCO1
> 100 µM: 786-0 renal | A498 renal | A549 NSCLC | ACHN renal | CAKI-1 renal | CCRF-CEM leukemia | COLO 205 colon | DLD-1 colon | DMS 114 small cell lung | DMS 273 small cell lung | HCC-2998 colon | HCT-116 colon | HCT-15 colon | HL-60(TB) leukemia | HOP-18 NSCLC | HOP-62 NSCLC | IGROV1 ovarian | K-562 leukemia | KM12 colon | KM20L2 colon | LXFL 529 NSCLC | M14 melanoma | M19-MEL melanoma | MALME-3M melanoma | MOLT-4 leukemia | NCI-H226 lung | NCI-H460 lung | NCI-H522 lung | OVCAR-3 ovarian | OVCAR-4 ovarian | OVCAR-8 ovarian | RPMI-8226 leukemia | RXF 393 renal | RXF-631 renal | SF-268 CNS | SF-539 CNS | SK-MEL-2 melanoma | SK-MEL-28 melanoma | SK-MEL-5 melanoma | SK-OV-3 ovarian | SN12C renal | SNB-19 CNS | SNB-75 CNS | SNB-78 CNS | SR leukemia | SW-620 colon | TK-10 renal | U251 CNS | UACC-257 melanoma | UACC-62 melanoma | UO-31 renal

CC[C@H]1CNC(=O)CC1CC(=O)OC (stereo partly drawn)
> 100 µM: 786-0 renal | A498 renal | A549 NSCLC | ACHN renal | CAKI-1 renal | DLD-1 colon | DMS 114 small cell lung | DMS 273 small cell lung | EKVX NSCLC | HCC-2998 colon | HCT-116 colon | HCT-15 colon | HOP-62 NSCLC | HT29 colon | IGROV1 ovarian | KM12 colon | LOX IMVI melanoma | M14 melanoma | MALME-3M melanoma | MOLT-4 leukemia | NCI-H226 lung | NCI-H23 lung | NCI-H460 lung | NCI-H522 lung | OVCAR-4 ovarian | OVCAR-5 ovarian | OVCAR-8 ovarian | RXF 393 renal | RXF-631 renal | SF-268 CNS | SF-295 CNS | SF-539 CNS | SK-MEL-2 melanoma | SK-MEL-28 melanoma | SK-MEL-5 melanoma | SK-OV-3 ovarian | SN12C renal | SNB-19 CNS | SNB-75 CNS | SNB-78 CNS | SR leukemia | SW-620 colon | TK-10 renal | U251 CNS | UACC-257 melanoma | UACC-62 melanoma | UO-31 renal
